Assay [1] has as its target T1, human amylin 3(a) receptor (human calcitonin receptor + RAMP-3) in BHK570 cells (Homo sapiens, UniProt O60896+P30988).
T1 construct: expressed in transfected cells
Nature of the assay: ASSAY (II)a functional assay, human amylin receptor (CRE luciferase). It is filed as cell-based. A digest of the protocol:
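Receptor activation is measured as cAMP-driven CRE-luciferase expression in BHK cells expressing the calcitonin receptor, with RAMP-3 co-expressed to form the amylin 3(a) receptor. Cells are exposed to compound for 3 hours at 37° C, and luciferase is then quantified by luminescence.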

For another assay, the target named is T2, rat calcitonin receptor (Rattus norvegicus, UniProt P32214).
T2 construct: expressed in transfected cells; host or cells: BHK tk'ts 13 (transient, FuGENE 6), membranes
T2 sequence (P32214 25-479 isoform P32214-2 limits assumed): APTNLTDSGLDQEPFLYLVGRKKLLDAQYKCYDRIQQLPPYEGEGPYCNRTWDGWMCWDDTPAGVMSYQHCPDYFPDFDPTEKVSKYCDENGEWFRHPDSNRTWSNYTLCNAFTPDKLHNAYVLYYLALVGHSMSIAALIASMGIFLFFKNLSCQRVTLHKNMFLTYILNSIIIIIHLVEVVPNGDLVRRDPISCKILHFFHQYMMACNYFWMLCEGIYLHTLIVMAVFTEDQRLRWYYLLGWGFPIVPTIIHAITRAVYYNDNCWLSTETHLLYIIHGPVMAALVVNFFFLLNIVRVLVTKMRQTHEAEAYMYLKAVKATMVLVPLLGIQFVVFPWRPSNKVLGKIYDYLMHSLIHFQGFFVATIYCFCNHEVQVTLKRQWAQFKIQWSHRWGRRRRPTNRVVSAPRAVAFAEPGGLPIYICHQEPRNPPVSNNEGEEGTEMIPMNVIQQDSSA
Nature of the assay: ASSAY (VIII) binding to the rat calcitonin receptor. The conditions noted are these: Table 7, read-out: rCTR bind IC50. A digest of the protocol:
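BHK tk′ts 13 cells, transient rat calcitonin receptor transfection; DMEM + 10% FBS; harvest ~48 h post-transfection; membrane prep.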

In assay [2] the target is T3, human amylin receptor (membranes from Amylin 3(a)/CRE-luc cells) (Homo sapiens, UniProt O60896+P30988).
T3 construct: expressed in transfected cells
T3 sequence (P30988 25-474): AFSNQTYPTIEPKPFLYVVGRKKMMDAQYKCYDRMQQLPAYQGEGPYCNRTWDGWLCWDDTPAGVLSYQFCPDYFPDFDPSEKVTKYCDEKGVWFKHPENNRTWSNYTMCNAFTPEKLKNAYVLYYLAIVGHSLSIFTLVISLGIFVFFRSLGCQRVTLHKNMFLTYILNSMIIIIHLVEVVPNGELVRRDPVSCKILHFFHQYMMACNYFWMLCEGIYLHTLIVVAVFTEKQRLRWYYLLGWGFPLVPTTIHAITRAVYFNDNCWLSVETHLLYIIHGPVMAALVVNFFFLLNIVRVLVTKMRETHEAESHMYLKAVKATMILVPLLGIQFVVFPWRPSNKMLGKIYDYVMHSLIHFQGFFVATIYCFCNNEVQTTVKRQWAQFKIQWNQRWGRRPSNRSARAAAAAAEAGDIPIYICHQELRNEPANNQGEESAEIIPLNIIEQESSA
T3 sequence (O60896 24-148 partner): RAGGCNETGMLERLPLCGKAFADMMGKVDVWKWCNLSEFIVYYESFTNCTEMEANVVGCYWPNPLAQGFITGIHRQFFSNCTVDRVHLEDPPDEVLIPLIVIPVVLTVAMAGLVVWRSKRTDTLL
The assay can be described thus: ASSAY (V) binding to the human amylin receptor (SPA, 125I-rat amylin).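 Note: competition binding of cell membranes (35 ng/µL) mixed with SPA beads in 384-well plates at 40 µL total volume, read by scintillation counting.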

Another assay relates to Sprague Dawley (SD) rats. Nature of the assay: ASSAY (I) efficacy testing on appetite (food intake) using an ad libitum fed rat model. It is filed as in vivo. The conditions noted are these: rat. A digest of the protocol: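 Individual food consumption was logged each hour up to 7 h and again at 24 h, occasionally 48 h, with Grubbs-test outliers removed. Each 200–250 g Sprague Dawley rat, free-feeding in its home cage under reversed lighting, received a single ip, po or sc dose of 0.01–3 mg/kg at lights-off, alongside a vehicle group.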

[3] abbreviates: hCTR funct. EC50 divided by hAmylin-R funct. EC50.
The mark [4] stands for this setting: hCTR funct. EC50 over hAmylin-R funct. EC50.
The mark [5] stands for this setting: human functional selectivity: hCTR funct. EC50 / hAmylin-R funct. EC50.
The mark [6] stands for this setting: Table 5, selectivity, hCTR bind IC50 / hAmylin-R bind IC50.
[7] abbreviates: Table 5a, selectivity, hCTR bind IC50 / hAmylin-R bind IC50.
The mark [8] stands for this setting: Table 5b, selectivity, hCTR bind IC50 / hAmylin-R bind IC50.
The mark [9] stands for this setting: Table 5c, selectivity, hCTR bind IC50 / hAmylin-R bind IC50.
The mark [10] stands for this setting: Table 7, human binding selectivity, included for comparison.
[11] abbreviates: Table 7a (preferred compounds), human binding selectivity, included for comparison.
Where [12] appears, read: ratio of human calcitonin receptor binding IC50 to human amylin receptor binding IC50.

pIC50: −log10 of the molar value. Numbered stars: 1 amine (or outer) side, 2 acyl side, 3 side chain; on linkers, the order of the positions; unused ones are H or OH. Bridge positions count the residues as written; N and C are the ends. Side chains are listed from the residue outwards. Peptide text beside a SMILES is read from it. * marks the point of attachment. C20 diacid = O=C(O)CCCCCCCCCCCCCCCCCCC(=O)*; γGlu = O=C(O)[C@H](CCC(=O)[*:2])N[*:1]

For the molecule `CC[C@H](C)[C@H](NC(=O)[C@H](C)NC(=O)CNC(=O)[C@H](Cc1ccccc1)NC(=O)[C@H](CC(N)=O)NC(=O)[C@@H]1CCCN1C(=O)[C@H](CO)NC(=O)[C@H](CO)NC(=O)[C@H](Cc1c[nH]cn1)NC(=O)[C@H](CCCNC(=N)N)NC(=O)[C@H](CC(C)C)NC(=O)[C@H](Cc1ccccc1)NC(=O)[C@H](CCC(=O)O)NC(=O)[C@H](C)NC(=O)[C@H](CC(C)C)NC(=O)[C@H](CCCNC(=N)N)NC(=O)[C@H](CCC(N)=O)NC(=O)[C@@H](NC(=O)[C@H](C)NC(=O)[C@@H]1CSSC[C@H](NC(=O)[C@@H](N)CCCCNC(=O)CC[C@H](NC(=O)CC[C@H](NC(=O)CCCCCCCCCCCCCCCCCCC(=O)O)C(=O)O)C(=O)O)C(=O)N[C@@H](CC(N)=O)C(=O)N[C@@H]([C@@H](C)O)C(=O)N[C@@H](C)C(=O)N[C@@H]([C@@H](C)O)C(=O)N1)[C@@H](C)O)C(=O)N1CCC[C@H]1C(=O)N[C@@H](CO)C(=O)N[C@@H](CO)C(=O)N[C@H](C(=O)N[C@@H](CC(N)=O)C(=O)N[C@H](C(=O)NCC(=O)N[C@@H](CCCNC(=N)N)C(=O)N[C@@H](CC(N)=O)C(=O)N[C@H](C(=O)N[C@@H](Cc1ccc(O)cc1)C(N)=O)[C@@H](C)O)C(C)C)[C@@H](C)O` [Example 88] (H-K([γGlu-γGlu-C20 diacid])CNTATCATQRLAEFLRHSSPNFGAIPSSTNVGRNTY-NH2; disulfide 2-7), the “Ratio hCT/hAmylin funct.” value in assay [1] (setting [3]), in assay [1] (setting [4]) and in assay [1] (setting [5]) was 8.5 in each case. Further, at rat calcitonin receptor, the pIC50 – broadly, −log10 of the IC50, conventionally taken in molar units – was 6.71. Moreover, the “Ratio hCT/hAmylin binding” value in assay [2] (setting [6]), in assay [2] (setting [7]), in assay [2] (setting [8]), in assay [2] (setting [9]), in assay [2] (setting [10]) and in assay [2] (setting [11]) was 46.5 in each case. For the same molecule, the “Ratio hCT/hAmylin binding” value in assay [2] (setting [12]) was 46.5. Also, the “Food intake reduction 0-24 h 30 nmol/kg (%)” value in the assay with Sprague Dawley (SD) rats (0-24 h) turned out to be 31%. In addition, the “Food intake reduction 24-48 h 30 nmol/kg (%)” value in the assay with Sprague Dawley (SD) rats (24-48 h) turned out to be 15%.

As for `CC[C@H](C)[C@H](NC(=O)[C@H](C)NC(=O)CNC(=O)[C@H](Cc1ccccc1)NC(=O)[C@H](CC(N)=O)NC(=O)[C@@H]1CCCN1C(=O)[C@H](CO)NC(=O)[C@H](CO)NC(=O)[C@H](Cc1c[nH]cn1)NC(=O)[C@H](CCCNC(=N)N)NC(=O)[C@H](CC(C)C)NC(=O)[C@H](Cc1ccccc1)NC(=O)[C@H](CCC(=O)O)NC(=O)[C@H](C)NC(=O)[C@H](CC(C)C)NC(=O)[C@H](CCCNC(=N)N)NC(=O)[C@H](CCC(N)=O)NC(=O)[C@@H](NC(=O)[C@H](C)NC(=O)[C@@H]1CSSC[C@H](NC(=O)[C@@H](N)CCCCNC(=O)CC[C@H](NC(=O)CC[C@H](NC(=O)CCCCCCCCCCCCCCCCCCC(=O)O)C(=O)O)C(=O)O)C(=O)N[C@@H](CC(N)=O)C(=O)N[C@@H]([C@@H](C)O)C(=O)N[C@@H](C)C(=O)N[C@@H]([C@@H](C)O)C(=O)N1)[C@@H](C)O)C(=O)N1CCC[C@H]1C(=O)N[C@@H](CO)C(=O)N[C@@H](CO)C(=O)N[C@H](C(=O)N[C@@H](CC(N)=O)C(=O)N[C@H](C(=O)NCC(=O)N[C@@H](Cc1c[nH]cn1)C(=O)N[C@@H](CCC(=O)O)C(=O)N[C@H](C(=O)N[C@@H](Cc1ccc(O)cc1)C(N)=O)[C@@H](C)O)C(C)C)[C@@H](C)O` [Example 104] (H-K([γGlu-γGlu-C20 diacid])CNTATCATQRLAEFLRHSSPNFGAIPSSTNVGHETY-NH2; disulfide 2-7; N-terminus assumed), the “Ratio hCT/hAmylin funct.” value in assay [1] (setting [3]), in assay [1] (setting [4]) and in assay [1] (setting [5]) was 15.8 each time. The negative logarithm of the IC50 (pIC50) at rat calcitonin receptor is 6.30. In addition, the “Ratio hCT/hAmylin binding” value in assay [2] (setting [6]), in assay [2] (setting [7]), in assay [2] (setting [8]), in assay [2] (setting [9]), in assay [2] (setting [10]) and in assay [2] (setting [11]) was 29.1 throughout. The “Ratio hCT/hAmylin binding” value in assay [2] (setting [12]) came out at 29.1. The “Food intake reduction 0-24 h 30 nmol/kg (%)” value with Sprague Dawley (SD) rats (0-24 h) is 31%. Besides, the “Food intake reduction 24-48 h 30 nmol/kg (%)” value with Sprague Dawley (SD) rats (24-48 h) was 28%.

Regarding `CC[C@H](C)[C@H](NC(=O)[C@H](C)NC(=O)CNC(=O)[C@H](Cc1ccccc1)NC(=O)[C@H](CC(N)=O)NC(=O)[C@@H]1CCCN1C(=O)[C@H](CO)NC(=O)[C@H](CO)NC(=O)[C@H](Cc1c[nH]cn1)NC(=O)[C@H](CCCNC(=N)N)NC(=O)[C@H](CC(C)C)NC(=O)[C@H](Cc1ccccc1)NC(=O)[C@H](CCC(=O)O)NC(=O)[C@H](C)NC(=O)[C@H](CC(C)C)NC(=O)[C@H](CCCNC(=N)N)NC(=O)[C@H](CCC(N)=O)NC(=O)[C@@H](NC(=O)[C@H](C)NC(=O)[C@@H]1CSSC[C@H](NC(=O)[C@@H](N)CCCCNC(=O)CC[C@H](NC(=O)CCCCCCCCCCCCCCCCCCC(=O)O)C(=O)O)C(=O)N[C@@H](CC(N)=O)C(=O)N[C@@H]([C@@H](C)O)C(=O)N[C@@H](C)C(=O)N[C@@H]([C@@H](C)O)C(=O)N1)[C@@H](C)O)C(=O)N1CCC[C@H]1C(=O)N[C@@H](CO)C(=O)N[C@@H](CO)C(=O)N[C@H](C(=O)N[C@@H](CC(N)=O)C(=O)N[C@H](C(=O)NCC(=O)N1CCC[C@H]1C(=O)N[C@@H](CCC(=O)O)C(=O)N[C@H](C(=O)N[C@@H](Cc1ccc(O)cc1)C(N)=O)[C@@H](C)O)C(C)C)[C@@H](C)O` [Example 109] (H-K([γGlu-C20 diacid])CNTATCATQRLAEFLRHSSPNFGAIPSSTNVGPETY-NH2; disulfide 2-7 (inferred); N-terminus assumed), the “Ratio hCT/hAmylin funct.” value in assay [1] (setting [3]), in assay [1] (setting [4]) and in assay [1] (setting [5]) was 5.2 in each case. Moreover, the pIC50 at rat calcitonin receptor was 7.98. Besides, the “Ratio hCT/hAmylin binding” value in assay [2] (setting [6]), in assay [2] (setting [7]), in assay [2] (setting [8]), in assay [2] (setting [9]), in assay [2] (setting [10]) and in assay [2] (setting [11]) was 13.3 in each case. Besides, in assay [2] (setting [12]), the “Ratio hCT/hAmylin binding” value is 13.3. Further, in the assay on Sprague Dawley (SD) rats (3 nmol/kg, 0-24 h), the “Food intake reduction 0-24 h 3 nmol/kg (%)” value was 57%. Also, the “Food intake reduction 24-48 h 3 nmol/kg (%)” value in the assay with Sprague Dawley (SD) rats (3 nmol/kg, 24-48 h) is listed as 50%. Moreover, the “Food intake reduction 0-24 h 30 nmol/kg (%)” value in the assay with Sprague Dawley (SD) rats (0-24 h) turned out to be 89%. Besides, in the assay with Sprague Dawley (SD) rats (24-48 h), the “Food intake reduction 24-48 h 30 nmol/kg (%)” value was determined as 91%.

(Values after patent US9023789B2, “Amylin analogs and pharmaceutical compositions thereof” (Novo Nordisk A/S, priority 2012, dated 2015).)
